Assays:
MCF7 [1] = test: Antiproliferative activity against 17beta-estradiol stimulated human MCF7 cells assessed as inhibition of cell growth incubated for 5 to 7 days by fluorescence based assay; assay type: functional
MCF7 [2] = test: Antiproliferative activity against human MCF7 cells assessed as inhibition of cell growth incubated for 48 hrs by MTT assay; assay type: functional, cell-based; conditions: MCF7, 48 h
Ishikawa = test: Antiproliferative activity against human Ishikawa cells assessed as inhibition of cell growth incubated for 48 hrs by MTT assay; assay type: functional, cell-based
MCF7 [3] = test: Antiproliferative activity against human MCF7 cells assessed as inhibition of cell growth incubated for 48 hrs by CCK-8 assay; assay type: functional, cell-based; conditions: MCF7, 48 h
[4] = In vivo antagonist activity against E2-mediated uterine stimulation in Sprague-Dawley rat administered orally or subcutaneously once daily for 3 days; assay type: functional, organism-based
Estrogen receptor beta = Estrogen receptor beta (Homo sapiens, UniProt Q92731); test: Inhibition of ERbeta (unknown origin) incubated for 4 hrs by fluorescence polarization assay
Sequence of Estrogen receptor beta (Q92731 whole entry): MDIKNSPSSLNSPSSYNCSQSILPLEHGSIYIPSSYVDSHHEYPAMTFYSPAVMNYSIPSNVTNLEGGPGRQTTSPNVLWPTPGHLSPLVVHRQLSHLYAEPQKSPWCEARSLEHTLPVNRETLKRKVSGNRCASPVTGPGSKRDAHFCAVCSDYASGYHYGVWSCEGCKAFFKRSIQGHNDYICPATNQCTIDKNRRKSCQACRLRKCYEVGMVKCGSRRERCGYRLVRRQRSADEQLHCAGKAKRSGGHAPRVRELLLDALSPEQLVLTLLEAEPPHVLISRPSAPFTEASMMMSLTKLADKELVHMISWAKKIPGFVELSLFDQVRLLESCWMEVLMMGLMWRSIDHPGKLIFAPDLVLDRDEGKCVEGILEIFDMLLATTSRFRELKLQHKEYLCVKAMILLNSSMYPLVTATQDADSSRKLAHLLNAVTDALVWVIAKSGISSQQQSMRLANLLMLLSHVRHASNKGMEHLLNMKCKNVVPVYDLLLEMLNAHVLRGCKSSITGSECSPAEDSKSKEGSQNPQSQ

[5] = Downregulation of ER expression in human MCF7 cells incubated for 48 hrs by ELISA; assay type: functional, cell-based; conditions: MCF7, 48 h
[6] = Cmax in Sprague-Dawley rat at 10 mg/kg, po via gavage for 2 hrs by UHPLC analysis; assay type: ADME, organism-based; set-up: dose 10 mg/kg, time 2 hrs, route po; conditions: in vivo
[7] = Half life in Sprague-Dawley rat at 10 mg/kg, po via gavage for 2 hrs by UHPLC analysis; assay type: ADME, organism-based; conditions: in vivo
[8] = Observed AUC (0 to infinity) in Sprague-Dawley rat at 10 mg/kg, po via gavage for 2 hrs by UHPLC analysis; assay type: ADME, organism-based; set-up: dose 10 mg/kg, time 2 hrs, route po; conditions: in vivo

CC1=C(c2ccc(O)cc2)[C@H](c2ccc(OCCN3CC[C@@H](C)C3)cc2)Oc2cc(O)ccc21
IC50 (MCF7 [1]): 7.2 nM

O=C(/C=C\c1ccc(-c2nc(-c3ccc(O)cc3)nc(-c3ccc(O)cc3)n2)cc1)NCCCO
IC50 (MCF7 [2]): 3150 nM | IC50 (Ishikawa): 3110 nM

COc1ccc(C(=O)C2=C(Oc3ccc(/C=C/C(=O)O)cc3)c3ccc(O)cc3OC2)cc1
IC50 (MCF7 [3]): 800 nM

CCNCCc1ccc(CN(CC)c2cc(OC)ccc2[C@@H]2CCc3cc(O)ccc3C2)cc1 [ELACESTRANT]
EC50 [4]: 0.3 mg/kg | IC50 (Estrogen receptor beta): 870 nM | EC50 [5]: 0.6 nM

C[C@]12CC[C@@H]3c4ccc(B(O)O)cc4C[C@@H](CCCCCCCCC[S+]([O-])CCCC(F)(F)C(F)(F)F)[C@H]3[C@@H]1CC[C@@H]2O (stereo not given in full) [ZB-716]
Cmax [6]: 158 ng/mL | half-life [7]: 17 h | AUC(0-inf) [8]: 1450 ng·h/mL

— ChEMBL document CHEMBL5370532, “Selective Estrogen receptor degraders (SERDs) for the treatment of breast cancer: An overview” (Eur J Med Chem, 2023)
